Results on 75 compounds are retold here after patent US9320276B2, “N-hetarylmethyl pyrazolylcarboxamides” (BAYER INTELLECTUAL PROPERTY GMBH, priority 2010, dated 2016).

The structures appear in SMILES notation.

This data set in a line: logP by HPLC on reversed-phase column (EEC Directive 79/831 Annex V.A8). Conditions: HPLC on reversed-phase column (C 18), 40° C., 0.1% aqueous formic acid and acetonitrile, linear gradient 10% to 90% acetonitrile. It is filed as physicochemical. The procedure:
In table 1, the logP values were determined in accordance with EEC Directive 79/831 Annex V.A8 by HPLC (High Performance Liquid Chromatography) on a reversed-phase column (C 18), using the method described below: Temperature: 40° C.; Mobile phases: 0.1% aqueous formic acid and acetonitrile; linear gradient from 10% acetonitrile to 90% acetonitrile. Calibration was carried out using unbranched alkan-2-ones (comprising 3 to 16 carbon atoms) with known logP values (determination of the logP values by the retention times using linear interpolation between two successive alkanones). lambda-max-values were determined using UV-spectra from 200 nm to 400 nm and the peak values of the chromatographic signals.
The logP is a log measure of how a compound divides between an organic and an aqueous phase. A lower logP goes with a more hydrophilic compound. On to `Cn1nc(C(F)F)c(C(=O)N(Cc2cccnc2)CC(F)(F)F)c1Cl` [Example 13], for which the logP came out at 1.37. In turn, `CC(C)Oc1ccc(CN(C)C(=O)c2c(C(F)F)nn(C)c2Cl)cn1` [Example 101] returned a logP of 2.59.

Turning to `Cc1cc(CN(C(=O)c2c(C(F)F)nn(C)c2Cl)C2CC2)c(C)n1-c1ccccc1` [Example 146], the logP is recorded as 3.94.

As for `CN(Cc1cccnc1Cl)C(=O)c1c(C(F)F)nn(C)c1F` [Example 52], the log partition coefficient (logP) is recorded as 1.72. Regarding `Cn1nc(C(F)F)c(C(=O)NC2(c3ccco3)CCCC2)c1F` [Example 12], the log partition coefficient (logP) was determined as 2.70. For `CCN(Cc1ccc(Cl)nc1)C(=O)c1c(C(F)F)nn(C)c1F` [Example 61], the logP is listed as 2.10.

In turn, `Cn1nc(C(F)F)c(C(=O)N(Cc2nc3ccccc3s2)C2CC2)c1Cl` [Example 97] returned a logP of 2.80. For `CCn1cc(CNC(=O)c2c(C(F)F)nn(C)c2F)c(C)n1` [Example 47], the lipophilicity (logP) was found to be 1.31. With `Cn1nc(C(F)F)c(C(=O)NC2(c3cccs3)CCCC2)c1Cl` [Example 33], the logP came out at 3.13.

`Cn1nc(C(F)F)c(C(=O)NC2(c3cccnc3)CCCC2)c1F` [Example 18]: the log partition coefficient (logP) is recorded as 0.84.

`CN(Cc1cccnc1Cl)C(=O)c1c(C(F)F)nn(C)c1Cl` [Example 51] registered a logP of 1.87.

`Cc1ccoc1CN(C)C(=O)c1c(C(F)F)nn(C)c1F` [Example 22] showed a log partition coefficient (logP) of 2.18. The compound `CC(C)N(Cc1ccc(Cl)nc1)C(=O)c1c(C(F)F)nn(C)c1Cl` [Example 64] registered a logP of 2.49. `CN(Cc1ccnc(Cl)c1)C(=O)c1c(C(F)F)nn(C)c1F` [Example 54] registered a log partition coefficient (logP) of 1.76. As for `Cn1nc(C(F)F)c(C(=O)NC2(c3cc4ccccc4o3)CCCC2)c1Cl` [Example 74], the logP stood at 3.70. In turn, `CCN(Cc1ccc(Cl)nc1)C(=O)c1c(C(F)F)nn(C)c1Cl` [Example 60] returned a logP of 2.23.

Take `CCN(Cc1cn(CC)nc1C)C(=O)c1c(C(F)F)nn(C)c1Cl` [Example 46]: the logP is 1.79. Turning to `Cn1nc(C(F)F)c(C(=O)N(Cc2ccco2)C2CC2)c1Cl` [Example 4], the logP is given as 2.45. In the case of `CCN(Cc1cnc(Cl)s1)C(=O)c1c(C(F)F)nn(C)c1Cl` [Example 77], the logP was 2.35.

As for `Cc1onc(-c2ccccc2)c1CN(C)C(=O)c1c(C(F)F)nn(C)c1Cl` [Example 129], the log partition coefficient (logP) was found to be 2.59.

For `CCCN(Cc1cccs1)C(=O)c1c(C(F)F)nn(C)c1F` [Example 30], the logP came out at 2.77. Compound `Cn1nc(C(F)F)c(C(=O)N(Cc2ccc(Cl)nc2)C2CCCC2)c1Cl` [Example 68] displayed a logP of 2.94. Compound `CN(Cc1cc(-c2ccc(Cl)cc2)no1)C(=O)c1c(C(F)F)nn(C)c1F` [Example 152] registered a logP of 3.04. The logP values of the last two compounds are within 0.2 log units of each other. Compound `CC(C)N(Cc1cnn(-c2ccc(Cl)cc2)c1)C(=O)c1c(C(F)F)nn(C)c1F` [Example 150] yielded a logP of 3.25. Then `Cn1nc(C(F)F)c(C(=O)NCc2csc3ccccc23)c1Cl` [Example 87], with 2.90; and `COCCN(Cc1ccc(Cl)nc1)C(=O)c1c(C(F)F)nn(C)c1Cl` [Example 58], with 2.15. On to `Cn1nc(C(F)F)c(C(=O)N(Cc2ccc(Cl)nc2)C2CCCC2)c1F` [Example 57], for which the logP was determined as 2.80. The figure for `CN(Cc1ccco1)C(=O)c1c(C(F)F)nn(C)c1Cl` [Example 6] is 2.02; for `Cn1ccc(C2(NC(=O)c3c(C(F)F)nn(C)c3Cl)CCCC2)n1` [Example 25] it is 1.93; for `COCCN(Cc1ccc(Cl)nc1)C(=O)c1c(C(F)F)nn(C)c1F` [Example 59] it is 2.02.

Turning to `CN(Cc1ccnc(Cl)c1)C(=O)c1c(C(F)F)nn(C)c1Cl` [Example 53], the lipophilicity (logP) is 1.91. With `Cc1cc(C(C)N(C(=O)c2c(C(F)F)nn(C)c2Cl)C2CC2)c(C)o1` (stereo not drawn) [Example 36], the logP amounted to 3.37. `CCN(Cc1c(C)nn(CC)c1C)C(=O)c1c(C(F)F)nn(C)c1F` [Example 79]: the logP turned out to be 1.72. In turn, `CN(Cc1cscc1Br)C(=O)c1c(C(F)F)nn(C)c1Cl` [Example 134] returned a logP of 2.70. In the case of `CC(C)C(c1cncnc1)N(C)C(=O)c1c(C(F)F)nn(C)c1F` (stereo not drawn) [Example 20], the lipophilicity (logP) stood at 1.65.

`Cn1nc(C(F)F)c(C(=O)NC2(c3cccnc3)CCCC2)c1Cl` [Example 17] came in with a logP of 0.96. The figure for `Cn1nc(C(F)F)c(C(=O)NC2(c3ccco3)CCCC2)c1Cl` [Example 11] is 2.86. The compound `CN(Cc1nc(-c2ccccc2)no1)C(=O)c1c(C(F)F)nn(C)c1Cl` [Example 113] yielded a lipophilicity (logP) of 2.71. `Cn1nc(C(F)F)c(C(=O)N(Cc2sccc2Br)C2CC2)c1F` [Example 135]: the lipophilicity (logP) is listed as 3.11. Compound `CN(Cc1cncc(Cl)c1)C(=O)c1c(C(F)F)nn(C)c1F` [Example 56] displayed a log partition coefficient (logP) of 1.76.

As to `Cc1nc(-c2ccccc2)sc1CN(C)C(=O)c1c(C(F)F)nn(C)c1Cl` [Example 148], the logP is recorded as 2.90. The figure for `Cn1nc(C(F)F)c(C(=O)N(Cc2ccc(Cl)nc2)C2CC2)c1Cl` [Example 66] is 2.39.

For the compound `CN(Cc1sc2ccccc2c1Cl)C(=O)c1c(C(F)F)nn(C)c1Cl` [Example 141], the logP stood at 3.63. `Cn1nc(C(F)F)c(C(=O)N(Cc2ccco2)C2CCCCC2)c1Cl` [Example 7] showed a log partition coefficient (logP) of 3.35. `CC(C)C(c1cncnc1)N(C)C(=O)c1c(C(F)F)nn(C)c1Cl` (stereo not drawn) [Example 19] showed a logP of 1.76. In turn, `CN(Cc1ccc(Cl)nc1)C(=O)c1c(C(F)F)nn(C)c1F` [Example 63] showed a logP of 1.84. The compound `Cc1onc(-c2ccccc2)c1CN(C)C(=O)c1c(C(F)F)nn(C)c1F` [Example 130] had a logP of 2.44.

`Cc1occc1C1(NC(=O)c2c(C(F)F)nn(C)c2F)CCCC1` [Example 24] showed a log partition coefficient (logP) of 2.92. Consider `CN(Cc1cncc(Cl)c1)C(=O)c1c(C(F)F)nn(C)c1Cl` [Example 55], for which the lipophilicity (logP) turned out to be 1.90. `Cn1nc(C(F)F)c(C(=O)N(Cc2cnc(Cl)cc2Cl)C2CC2)c1Cl` [Example 119] returned a logP of 2.90. As for `CCN(Cc1cnc(Cl)s1)C(=O)c1c(C(F)F)nn(C)c1F` [Example 76], the logP came to 2.21.

Compound `CN(Cc1ccc(Cl)nc1)C(=O)c1c(C(F)F)nn(C)c1Cl` [Example 62] showed a lipophilicity (logP) of 1.98. `Cn1ccc(C2(NC(=O)c3c(C(F)F)nn(C)c3F)CCCC2)n1` [Example 26] came in with a logP of 2.25. On to `Cn1nc(C(F)F)c(C(=O)N(Cc2ccco2)C2CCCCC2)c1F` [Example 8], for which the log partition coefficient (logP) is recorded as 3.21. On to `Cc1ccsc1CN(C(=O)c1c(C(F)F)nn(C)c1F)C1CCCC1` [Example 38], for which the logP came out at 3.46.

For `Cn1nc(C(F)F)c(C(=O)NCc2ccco2)c1F` [Example 10], the logP was determined as 1.66. On to `CN(Cc1ccco1)C(=O)c1c(C(F)F)nn(C)c1F` [Example 1], for which the logP stood at 1.87. The compound `CCN(Cc1nonc1C)C(=O)c1c(C(F)F)nn(C)c1Cl` [Example 27] showed a logP of 2.20. In turn, `CC(C)N(Cc1ccc(Cl)nc1)C(=O)c1c(C(F)F)nn(C)c1F` [Example 65] yielded a logP of 2.33. The compound `Cn1nc(C(F)F)c(C(=O)NCc2cc3ccccc3s2)c1F` [Example 84] registered a logP of 2.75. The compound `Cn1nc(C(F)F)c(C(=O)N(Cc2cccnc2)CC(F)(F)F)c1F` [Example 14] registered a lipophilicity (logP) of 1.20. With `Cn1nc(C(F)F)c(C(=O)N(Cc2sccc2Br)C2CC2)c1Cl` [Example 136], the logP turned out to be 3.29. The figure for `CC(C1CC1)N(Cc1ccco1)C(=O)c1c(C(F)F)nn(C)c1F` (stereo not drawn) [Example 3] is 2.82; for `C=CCN(Cc1csc(C)n1)C(=O)c1c(C(F)F)nn(C)c1Cl` [Example 43] it is 2.20; for `CN(Cc1ccc2nsnc2c1)C(=O)c1c(C(F)F)nn(C)c1Cl` [Example 99] it is 2.32. Then `Cn1nc(C(F)F)c(C(=O)NCc2ccc(Cl)nc2)c1Cl` [Example 69], with 1.82.

`CCN(Cc1c(C)nn(CC)c1C)C(=O)c1c(C(F)F)nn(C)c1Cl` [Example 78]: the logP stood at 1.82.

`Cc1ccsc1CN(C)C(=O)c1c(C(F)F)nn(C)c1Cl` [Example 41] returned a logP of 2.58. For `Cn1nc(C(F)F)c(C(=O)NCc2ccco2)c1Cl` [Example 9], the logP worked out at 1.86. `CSc1ncc(C(C(C)C)N(C)C(=O)c2c(C(F)F)nn(C)c2Cl)c(C(F)(F)F)n1` (stereo not drawn) [Example 158] yielded a log partition coefficient (logP) of 3.59. As for `Cn1nc(C(F)F)c(C(=O)N(Cc2cccnc2)C2CCCCCC2)c1F` [Example 16], the logP is reported as 1.66. Then `CCN(Cc1cn(CC)nc1C)C(=O)c1c(C(F)F)nn(C)c1F` [Example 45], with 1.69; and `C=CCN(Cc1csc(C)n1)C(=O)c1c(C(F)F)nn(C)c1F` [Example 44], with 2.07; and `CC(C1CC1)N(Cc1ccco1)C(=O)c1c(C(F)F)nn(C)c1Cl` (stereo not drawn) [Example 2], with 2.98. `CCCN(Cc1cccs1)C(=O)c1c(C(F)F)nn(C)c1Cl` [Example 29]: the logP came out at 2.90.
